From PMC8409435 (Journal of molecular biology, 2021)
Where no end group is shown, it is not given here.

Tests used:
[1] = target: PKA-C^E31V (catalytic α subunit of cAMP-dependent protein kinase A) (Homo sapiens, UniProt P17612, E32V); test: steady-state coupled enzyme assay; assay type: biochemical
[2] = target: PKA-C^WT (catalytic α subunit of cAMP-dependent protein kinase A) (Homo sapiens, UniProt P17612); test: steady-state coupled enzyme assay; assay type: biochemical

## LRRASLG [Kemptide]
[1]
  steady-state coupled enzyme assay (kcat/KM): 0.46 ± 0.04
[2]
  steady-state coupled enzyme assay (kcat/KM): 0.41 ± 0.05
